The conditions of data set [1]: 530 nm LED, 150 mW cm^−2. The source says:
This example illustrates cell binding triggered by TTA-UC. Photo-triggered binding of NPTTA-c[R]GDfK to cells by flow cytometry and confocal microscopy, was studied with micelles in which a hydrophilic dye, Lissamine™ rhodamine B (LRB), was covalently bound to the PLA-PEG copolymer (forming PLA-PEG-LRB; FIG. 16).

The nature of data set [2]: Photocleavage of DEACM from NPTTA-c[R]GDfK (530 nm LED, centrifugal filtrate). The class given is physicochemical. The following applies: HPLC of filtrate. Here is the method: Photocleavage of DEACM from NPTTA-c[R]GDfK. One milliliter of NPTTA-c[R]GDfK solution (1 mg mL^−1) was put in a quartz cuvette and irradiated with LED light (530 nm, 150 mW cm^−2). At each irradiation time, the solution was put in an Amicon® Ultra centrifugal filter (50,000 Da cut-off) and centrifuged at 4000 rmp for 15 min. […]
Photocleavage of DEACM from NPTTA-c[R]GDfK. […] At each irradiation time, the solution was transferred into an Amicon® Ultra centrifugal filter (MWCO: 50,000 Da) and centrifuged at 4000 rmp for 15 min. […]

Data set [3] in a line: Photocleavage of c[R]GDfK molecule (400 nm LED, HPLC). The class given is physicochemical. The following applies: PBS. The procedure: Construction of photo-targeted polymeric micelles. […] The identity of the peaks was further confirmed by mass spectrometry. Approximately 86% of cleavage occurred within 30 s of irradiation at 50 mW cm^−2 (FIG. 2C). At an irradiance as low as 2.3 mW cm^−2, ˜42% of c[R]GDfK was cleaved after 2 min of irradiation.
FIG. 2A. Photocleavage of c[R]GDfK. […] FIG. 2B. UV-visible absorption and fluorescence emission spectra of c[R]GDfK in PBS (pH 7.4). The excitation wavelength for the fluorescence spectrum was 385 nm. FIG. 2C. Photocleavage rate of c[R]GDfK in PBS, as determined by HPLC (detected at 390 nm), after continuous irradiation with 400 nm LED light at 2.3 mW cm^−2 and 50 mW cm^−2 (data are mean+/−SD; n=4). a.u.=arbitrary units. […]
Photocleavage of c[R]GDfK molecule. A disposable macro fluorescence cuvette containing 400 microliters of c[R]GDfK PBS solution (50 microgram/mL) was irradiated under an 11-mm LED (400 nm) collimator with a Multi-channel Universal LED controller (Mightex Systems, CA, USA). […] The LED irradiance was measured with a PM100USB Power and Energy Meter (ThorLabs, NJ, USA). At each irradiation time point, 50 microliters of the irradiated solution was analyzed by reverse-phase high-performance liquid chromatography (RP-HPLC) with an Agilent 1260 Infinity LC system and a Poroshell 120 EC-C18 column (4.6×100 mm) (Agilent Technologies, CA, USA). […]

For the compound `CCN(CC)c1ccc2c(-c3ccc(S(=O)(=O)NCCN)cc3S(=O)(=O)O)c3ccc(=[N+](CC)CC)cc-3oc2c1.O=C(O)C(F)(F)F` [LRB, Lissamine™ rhodamine B ethylenediamine], the “photostable under irradiation, time” value in data set [1] was “at least 10 min”.
On to c[R]GDfK, for which the “photocleavage of DEACM on 530 nm irradiation” value in data set [2] is “did not cleave DEACM from c[R]GDfK”. Besides, the “c[R]GDfK cleaved” value in data set [3] (2.3 mW cm^−2, after 2 min) is around 42%. Further, in data set [3] (50 mW cm^−2, within 30 s, 50 microgram/mL), the “cleavage of c[R]GDfK” value is given as “Approximately 86%”.

Values taken from US20180311353A1, “TRIPLET-TRIPLET ANNIHILATION-BASED UPCONVERSION” (Children's Medical Center Corporation, priority 2015, published 2018).
